Assay results published in patent US20160199372A1, “IMIDAZOPYRIDAZINE KINASE INHIBITORS USEFUL TO TREATING A DISEASE OR DISORDER MEDIATED BY AAK1, SUCH AS ALZHEIMER'S DISEASE, BIPOLAR DISORDER, PAIN, SCHIZOPHRENIA” (Bristol-Myers Squibb Company, priority 2013, published 2016).

Columns and labels:
GST-Xa-hAAK1 = target: T1, GST-Xa-hAAK1 (Homo sapiens, UniProt Q2M2I8); assay: AAK1 Kinase Assay; format: biochemical; settings: ATP 22 μM; GST-Xa-hAAK1 3.5 nM; 3 hours at room temperature; Caliper LabChip 3000
T1 construct: made in house
From the text: IC50 values were derived by non-linear regression analysis.

mice = assay: formalin paw test (pain response); format: in vivo, mouse; settings: administered 30 minutes prior to formalin injection, % response relative to gabapentin 200 mg/kg
Method: AAK1 homozygous (−/−) and their wild-type (+/+) littermates were tested using the formalin paw test in order to assess their acute and tonic nociceptive responses. For these tests, Automatic Nociception Analyzers (purchased from the Ozaki lab at University of California, San Diego) were used. A metal band was placed around the left hind paw of each mouse 30 minutes prior to testing. After the 30-minute acclimation period, 20 μl of 5% formalin is subcutaneously injected in the dorsal surface of the left hind paw. Mice were individually housed in cylindrical chambers for 45 minutes. Fresh 5% formalin solution was prepared by diluting formaldehyde (Formalde-fresh 20%, Fisher Scientific, Fair Lawn, N.J.) with distilled water. Investigatory compounds were administered 30 minutes prior to formalin injection.
A computer recorded flinches per minute, total flinches for phase I (acute phase=first 8 minutes), and total flinches for phase II (tonic phase=time between minutes 20-40 or 10-60 minutes for drug studies) through an electromagnetic field. See Yaksh T L, Ozaki G, McCumber D, Rathbun M, Svensson C, Malkmus S, Yaksh M C. An automated flinch detecting system for use in the formalin nociceptive bioassay. J Appl Physiol., 2001; 90:2386-402.
The same test was used to confirm that the administration of an AAK1 inhibitor can also affect pain response. […]

T1 sequence (Q2M2I8 whole entry): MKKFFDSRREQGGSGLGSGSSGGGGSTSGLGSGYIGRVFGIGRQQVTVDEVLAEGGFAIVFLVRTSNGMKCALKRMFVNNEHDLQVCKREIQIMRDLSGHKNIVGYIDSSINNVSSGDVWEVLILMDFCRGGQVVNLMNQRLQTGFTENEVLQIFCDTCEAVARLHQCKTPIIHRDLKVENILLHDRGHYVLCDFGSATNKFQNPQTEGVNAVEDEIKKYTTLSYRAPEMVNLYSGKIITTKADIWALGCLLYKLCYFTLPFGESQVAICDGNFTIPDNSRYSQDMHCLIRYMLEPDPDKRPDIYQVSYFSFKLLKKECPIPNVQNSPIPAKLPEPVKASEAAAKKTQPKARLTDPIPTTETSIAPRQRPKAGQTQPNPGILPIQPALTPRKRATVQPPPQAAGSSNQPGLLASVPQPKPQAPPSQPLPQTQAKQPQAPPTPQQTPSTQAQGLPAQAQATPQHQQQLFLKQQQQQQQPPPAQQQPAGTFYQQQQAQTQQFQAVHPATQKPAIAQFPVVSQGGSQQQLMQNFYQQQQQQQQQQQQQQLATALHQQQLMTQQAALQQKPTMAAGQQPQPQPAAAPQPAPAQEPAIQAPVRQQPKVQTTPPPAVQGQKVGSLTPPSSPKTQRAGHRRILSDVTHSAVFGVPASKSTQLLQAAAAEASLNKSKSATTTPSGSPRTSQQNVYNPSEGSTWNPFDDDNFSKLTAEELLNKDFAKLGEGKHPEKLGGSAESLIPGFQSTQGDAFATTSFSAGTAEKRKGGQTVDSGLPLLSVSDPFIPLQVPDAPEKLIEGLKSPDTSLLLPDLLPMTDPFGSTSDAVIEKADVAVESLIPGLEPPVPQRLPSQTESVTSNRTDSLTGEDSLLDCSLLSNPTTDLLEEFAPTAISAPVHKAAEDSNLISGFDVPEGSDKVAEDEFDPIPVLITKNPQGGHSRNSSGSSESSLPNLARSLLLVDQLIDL

In the case of `CN(C)[C@H]1CC[C@H](Nc2cc(Nc3ccccc3)c3ncc(-c4ccsc4)n3n2)CC1` [Example 19, N^6-(trans-4-(Dimethylamino)cyclohexyl)-N^8-phenyl-3-(thiophen-3-yl)imidazo[1,2-b]pyridazine-6,8-diamine], the IC50 (GST-Xa-hAAK1) is reported as 12 nM.

For `CNc1cc(N[C@H]2CC[C@H](N)CC2)nn2c(C(=O)Nc3cccc(-c4nnc(C(C)C)s4)c3)cnc12` [Example 8, 6-(trans-4-Aminocyclohexylamino)-N-(3-(5-isopropyl-1,3,4-thiadiazol-2-yl)phenyl)-8-(methylamino)imidazo[1,2-b]pyridazine-3-carboxamide], the IC50 (GST-Xa-hAAK1) was 8.9 nM.

In the case of `N[C@H]1CC[C@H](Nc2ccc3ncc(C(=O)Nc4cccc(-c5coc(-c6ccccc6)n5)c4)n3n2)CC1` [Example 16, 6-(trans-4-Aminocyclohexylamino)-N-(3-(2-phenyloxazol-4-yl)phenyl)imidazo[1,2-b]pyridazine-3-carboxamide], the IC50 (GST-Xa-hAAK1) is reported as 154 nM.

`Cc1nc(-c2cccc(NC(=O)c3cnc4ccc(N[C@H]5CC[C@H](N)CC5)nn34)c2)co1` [Example 15, 6-(trans-4-Aminocyclohexylamino)-N-(3-(2-methyloxazol-4-yl)phenyl)imidazo[1,2-b]pyridazine-3-carboxamide] gave an IC50 (GST-Xa-hAAK1) of 342 nM.

`Cc1nc(-c2cccc(NC(=O)c3cnc4c(Nc5ccccc5)cc(N[C@H]5CC[C@H](N)CC5)nn34)c2)cs1` [Example 7, 6-(trans-4-Aminocyclohexylamino)-N-(3-(2-methylthiazol-4-yl)phenyl)-8-(phenylamino)imidazo[1,2-b]pyridazine-3-carboxamide] was tested, and the IC50 (GST-Xa-hAAK1) was 114 nM.

For `CC(C)c1nc(-c2cccc(NC(=O)c3cnc4ccc(N[C@H]5CC[C@H](N)CC5)nn34)c2)co1` [Example 14, 6-(trans-4-Aminocyclohexylamino)-N-(3-(2-isopropyloxazol-4-yl)phenyl)imidazo[1,2-b]pyridazine-3-carboxamide], the IC50 (GST-Xa-hAAK1) was 158 nM.

`NCC1(CC(=O)O)CCCCC1` [Gabapentin, reference compound] gave a Response (mice; 200 mg/kg sc) of 73%.

`CC(C)c1nc(-c2cccc(NC(=O)c3cnc4c(Nc5ccccc5)cc(N[C@H]5CC[C@H](N)CC5)nn34)c2)no1` [Example 1, 6-(trans-4-Aminocyclohexylamino)-N-(3-(5-isopropyl-1,2,4-oxadiazol-3-yl)phenyl)-8-(phenylamino)imidazo[1,2-b]pyridazine-3-carboxamide] showed a Response (mice; 60 mg/kg sc) of 59% and an IC50 (GST-Xa-hAAK1) of 10 nM.

Work on `CNc1cc(N[C@H]2CC[C@H](N)CC2)nn2c(-c3ccsc3)cnc12` [Example 20, N^6-(trans-4-Aminocyclohexyl)-N^8-methyl-3-(thiophen-3-yl)imidazo[1,2-b]pyridazine-6,8-diamine] yielded an IC50 (GST-Xa-hAAK1) of 38 nM.

Compound `CC(C)n1nnc(-c2cccc(NC(=O)c3cnc4c(Nc5ccccc5)cc(N[C@H]5CC[C@H](N)CC5)nn34)c2)n1` [Example 4, 6-(trans-4-Aminocyclohexylamino)-N-(3-(2-isopropyl-2H-tetrazol-5-yl)phenyl)-8-(phenylamino)imidazo[1,2-b]pyridazine-3-carboxamide] has an IC50 (GST-Xa-hAAK1) of 5.1 nM.

`N[C@H]1CC[C@H](Nc2cc(Nc3ccccc3)c3ncc(C(=O)Nc4cccc(-c5coc(-c6ccccc6)n5)c4)n3n2)CC1` [Example 6, 6-(trans-4-Aminocyclohexylamino)-8-(phenylamino)-N-(3-(2-phenyloxazol-4-yl)phenyl)imidazo[1,2-b]pyridazine-3-carboxamide] gave an IC50 (GST-Xa-hAAK1) of 940 nM.

`CC(C)c1nnc(-c2cccc(NC(=O)c3cnc4ccc(N[C@H]5CC[C@H](N)CC5)nn34)c2)s1` [Example 12, 6-(trans-4-Aminocyclohexylamino)-N-(3-(5-isopropyl-1,3,4-thiadiazol-2-yl)phenyl)imidazo[1,2-b]pyridazine-3-carboxamide] was tested, and the IC50 (GST-Xa-hAAK1) was 9.1 nM.

With `CC(C)c1nc(-c2cccc(NC(=O)c3cnc4c(Nc5ccccc5)cc(N[C@H]5CC[C@H](N)CC5)nn34)c2)co1` [Example 3, 6-(trans-4-Aminocyclohexylamino)-N-(3-(2-isopropyloxazol-4-yl)phenyl)-8-(phenylamino)imidazo[1,2-b]pyridazine-3-carboxamide] the IC50 (GST-Xa-hAAK1) was 94 nM.

`CC(C)c1nc(-c2cccc(NC(=O)c3cnc4ccc(N[C@H]5CC[C@H](N)CC5)nn34)c2)no1` [Example 11, 6-(trans-4-Aminocyclohexylamino)-N-(3-(5-isopropyl-1,2,4-oxadiazol-3-yl)phenyl)imidazo[1,2-b]pyridazine-3-carboxamide] gave an IC50 (GST-Xa-hAAK1) of 27 nM.

`CNc1cc(N[C@H]2CC[C@H](N)CC2)nn2c(C(=O)Nc3cccc(-c4nnn(C(C)C)n4)c3)cnc12` [Example 9, 6-(trans-4-Aminocyclohexylamino)-N-(3-(2-isopropyl-2H-tetrazol-5-yl)phenyl)-8-(methylamino)imidazo[1,2-b]pyridazine-3-carboxamide] showed an IC50 (GST-Xa-hAAK1) of 8 nM.

For `COc1ccc(Nc2cc(N[C@H]3CC[C@H](N)CC3)nn3c(-c4ccsc4)cnc23)cc1` [Example 22, N^6-(trans-4-Aminocyclohexyl)-N^8-(4-methoxyphenyl)-3-(thiophen-3-yl)imidazo[1,2-b]pyridazine-6,8-diamine], the IC50 (GST-Xa-hAAK1) was 9 nM.

For `CC(C)n1nnc(-c2cccc(NC(=O)c3cnc4ccc(N[C@H]5CC[C@H](N)CC5)nn34)c2)n1` [Example 13, 6-(trans-4-Aminocyclohexylamino)-N-(3-(2-isopropyl-2H-tetrazol-5-yl)phenyl)imidazo[1,2-b]pyridazine-3-carboxamide], the IC50 (GST-Xa-hAAK1) was 12 nM.

Work on `CNc1cc(N[C@H]2CC[C@H](N)CC2)nn2c(C(=O)Nc3cccc(-c4noc(C(C)C)n4)c3)cnc12` [Example 10, 6-(trans-4-Aminocyclohexylamino)-N-(3-(5-isopropyl-1,2,4-oxadiazol-3-yl)phenyl)-8-(methylamino)imidazo[1,2-b]pyridazine-3-carboxamide] yielded an IC50 (GST-Xa-hAAK1) of 16 nM.

Work on `N[C@H]1CC[C@H](Nc2cc(NC3CC3)c3ncc(-c4ccsc4)n3n2)CC1` [Example 21, N^6-(trans-4-Aminocyclohexyl)-N^8-cyclopropyl-3-(thiophen-3-yl)imidazo[1,2-b]pyridazine-6,8-diamine] yielded an IC50 (GST-Xa-hAAK1) of 40 nM.

`Cc1nc(-c2cccc(NC(=O)c3cnc4c(Nc5ccccc5)cc(N[C@H]5CC[C@H](N)CC5)nn34)c2)co1` [Example 5, 6-(trans-4-Aminocyclohexylamino)-N-(3-(2-methyloxazol-4-yl)phenyl)-8-(phenylamino)imidazo[1,2-b]pyridazine-3-carboxamide] gave an IC50 (GST-Xa-hAAK1) of 79 nM.

In the case of `CC(C)c1nnc(-c2cccc(NC(=O)c3cnc4c(Nc5ccccc5)cc(N[C@H]5CC[C@H](N)CC5)nn34)c2)s1` [Example 2, 6-(trans-4-Aminocyclohexylamino)-N-(3-(5-isopropyl-1,3,4-thiadiazol-2-yl)phenyl)-8-(phenylamino)imidazo[1,2-b]pyridazine-3-carboxamide], the IC50 (GST-Xa-hAAK1) is reported as 11 nM.

`N[C@H]1CC[C@H](Nc2cc(Nc3ccccc3)c3ncc(-c4ccsc4)n3n2)CC1` [Example 17, N^6-(trans-4-Aminocyclohexyl)-N^8-phenyl-3-(thiophen-3-yl)imidazo[1,2-b]pyridazine-6,8-diamine] was tested, and the IC50 (GST-Xa-hAAK1) was 10 nM.
